Columns and labels:
[1] = system: galium; experiment: Test A postemergence herbicide test; assay type: in vivo, Galium aparine
Procedure, shortened: (§1)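 Young potted plants in a loam–sand mix, one- to two-leaf stage and 2–10 cm tall, receive the test chemical postemergence and stay in a greenhouse for approximately 10 days. Injury is then judged by eye against untreated plants, scored 0 (none) to 100 (complete control).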

[2] = system: kochia; experiment: Test A pre-/postemergence herbicide test; assay type: in vivo, Kochia scoparia
Procedure, shortened: (§2)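 Greenhouse pot test with pre- and postemergence application of surfactant-containing solvent formulations. Postemergence plants were 2–10 cm, one- to two-leaf stage. Response scored visually after ~10 days, 0 (no effect) to 100 (complete control).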

[3] = system: pigweed; experiment: Test A pre-/postemergence herbicide test; assay type: in vivo, Amaranthus retroflexus
Procedure, shortened: as §2

[4] = system: giant foxtail; experiment: Test A pre-/postemergence herbicide test; assay type: in vivo, Setaria faberii
Procedure, shortened: as §2

[5] = system: barnyardgrass; experiment: Test A pre-/postemergence herbicide test; assay type: in vivo, Echinochloa crus-galli
Procedure, shortened: as §2

[6] = system: sedge, umbrella; experiment: Test B flooded paddy test; assay type: in vivo, Cyperus difformis; conditions: Flood, scale of 0 to 100 where 0 is no effect and 100 is complete control
Procedure, shortened: (§3)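 Visual ratings from 0, meaning no effect, up to 100, meaning complete control, were made by comparison with untreated controls 13 to 15 days after treatment. Test compounds went straight into floodwater standing 3 cm over the soil of pots holding 2-leaf seedlings.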

[7] = system: corn; experiment: Test A pre-/postemergence herbicide test; assay type: in vivo, Zea mays; conditions: Postemergence
Procedure, shortened: as §2

[8] = system: ragweed; experiment: Test A pre-/postemergence herbicide test; assay type: in vivo, Ambrosia elatior
Procedure, shortened: as §2

[9] = system: ryegrass, Italian; experiment: Test A pre-/postemergence herbicide test; assay type: in vivo, Lolium multiflorum
Procedure, shortened: as §2

[10] = system: ducksalad; experiment: Test B flooded paddy test; assay type: in vivo, Heteranthera limosa; conditions: Flood, scale of 0 to 100 where 0 is no effect and 100 is complete control
Procedure, shortened: as §3

[11] = system: rice; experiment: Test B flooded paddy test; assay type: in vivo, Oryza sativa; conditions: Flood, scale of 0 to 100 where 0 is no effect and 100 is complete control
Procedure, shortened: as §3

[12] = system: wheat; experiment: Test A pre-/postemergence herbicide test; assay type: in vivo, Triticum aestivum; conditions: Postemergence
Procedure, shortened: as §2

[13] = system: barnyardgrass; experiment: Test B flooded paddy test; assay type: in vivo, Echinochloa crus-galli; conditions: Flood, scale of 0 to 100 where 0 is no effect and 100 is complete control
Procedure, shortened: as §3

[14] = system: blackgrass; experiment: Test A postemergence herbicide test; assay type: in vivo, Alopecurus myosuroides
Procedure, shortened: as §1

[15] = 125 g ai/ha, visual rating on 0 to 100 scale (0 no effect, 100 complete control), approx. 10 days
[16] = 500 g ai/ha, 0 to 100 scale (0 no effect, 100 complete control)
[17] = Postemergence, 125 g ai/ha, visual rating on 0 to 100 scale (0 no effect, 100 complete control), approx. 10 days
[18] = Postemergence, 500 g ai/ha, 0 to 100 scale (0 no effect, 100 complete control)
[19] = Preemergence, 125 g ai/ha, 0 to 100 scale where 0 is no effect and 100 is complete control
[20] = Preemergence, 500 g ai/ha, visual rating on 0 to 100 scale (0 no effect, 100 complete control)
[21] = 125 g ai/ha, 0 to 100 scale, 0 is no effect, 100 is complete control
[22] = 125 g ai/ha, visual rating, 0 to 100 scale, 0 no effect, 100 complete control, approximately 10 days, preemergence
[23] = Postemergence, 125 g ai/ha, 0 to 100 scale, 0 is no effect, 100 is complete control
[24] = preemergence, 500 g ai/ha, 0 to 100 scale, 0 is no effect and 100 is complete control

O=C1NCC(c2cccc(Oc3ccccc3)c2)C1C(=O)Nc1cccc(F)c1F (stereo not drawn) [Compound 332]
70: Plant response rating, Barnyardgrass [5, 19]
90: Foxtail, Giant plant response rating [4, 20]
75: Plant response rating, Ducksalad ([10]; 500 g ai/ha)
0: Plant response rating, Galium [1, 15] | Plant response rating, Kochia [2, 17] | Plant response rating, Kochia [2, 19] | Kochia plant response rating [2, 20] | Plant response rating, Pigweed [3, 17] | Plant response rating, Pigweed [3, 18] | Plant response rating, Pigweed [3, 19] | Pigweed plant response rating [3, 20] | Plant response rating, Sedge, Umbrella ([6]; 500 g ai/ha) | Plant response rating, Corn [7, 15] | Plant response rating, Corn [7, 16] | Plant response rating, Ragweed [8, 17] | Plant response rating, Ragweed [8, 18] | Plant response rating, Ragweed [8, 19] | Ragweed plant response rating [8, 20] | Plant response rating, Ryegrass, Italian [9, 17] | Plant response rating, Ryegrass, Italian [9, 19] | Ryegrass, Italian plant response rating [9, 20] | Plant response rating, Rice ([11]; 500 g ai/ha) | Plant response rating, Wheat [12, 15] | Plant response rating, Blackgrass [14, 15] | Plant response rating, Blackgrass [14, 16]
30: Plant response rating, Foxtail, Giant [4, 17]
50: Plant response rating, Barnyardgrass [5, 18]
80: Plant response rating, Foxtail, Giant [4, 18] | Plant response rating, Foxtail, Giant [4, 19] | Barnyardgrass plant response rating [5, 20]
20: Plant response rating, Galium [1, 16] | Plant response rating, Kochia [2, 18] | Plant response rating, Ryegrass, Italian [9, 18] | Plant response rating, Wheat [12, 16]
40: Plant response rating, Barnyardgrass [5, 17] | Plant response rating, Barnyardgrass ([13]; 500 g ai/ha)

COc1ccc(C2CNC(=O)C2C(=O)Nc2cccc(F)c2F)cc1C(F)(F)F (stereo not drawn) [Compound 234]
70: Plant response rating, Foxtail, Giant [4, 22]
90: Plant response rating, Foxtail, Giant [4, 24] | Barnyardgrass plant response rating (0 to 100 scale, 0 is no effect, 100 is complete control) ([5]; Postemergence, 500 g ai/ha) | Plant response rating, Barnyardgrass [5, 24]
60: Plant response rating, Barnyardgrass [5, 22] | Plant response rating, Barnyardgrass [5, 23] | Corn plant response rating (0 to 100 scale, 0 is no effect, 100 is complete control) ([7]; 500 g ai/ha)
85: Plant response rating, Ducksalad ([10]; 1000 g ai/ha)
0: Plant response rating, Kochia [2, 23] | Plant response rating, Pigweed [3, 22] | Plant response rating, Pigweed [3, 23] | Pigweed plant response rating (0 to 100 scale, 0 is no effect, 100 is complete control) ([3]; Postemergence, 500 g ai/ha) | Plant response rating, Sedge, Umbrella ([6]; 1000 g ai/ha) | Plant response rating, Corn [7, 21] | Plant response rating, Ragweed [8, 22] | Plant response rating, Ragweed [8, 23] | Ragweed plant response rating (0 to 100 scale, 0 is no effect, 100 is complete control) ([8]; Postemergence, 500 g ai/ha) | Plant response rating, Rice ([11]; 1000 g ai/ha) | Plant response rating, Wheat [12, 21] | Plant response rating, Blackgrass [14, 21]
80: Foxtail, Giant plant response rating (0 to 100 scale, 0 is no effect, 100 is complete control) ([4]; Postemergence, 500 g ai/ha)
40: Plant response rating, Foxtail, Giant [4, 23] | Wheat plant response rating (0 to 100 scale, 0 is no effect, 100 is complete control) ([12]; 500 g ai/ha)
20: Plant response rating, Kochia [2, 22] | Plant response rating, Pigweed [3, 24] | Plant response rating, Ragweed [8, 24] | Plant response rating, Ryegrass, Italian [9, 23]
75: Plant response rating, Barnyardgrass ([13]; 1000 g ai/ha)
50: Galium plant response rating (0 to 100 scale, 0 is no effect, 100 is complete control) ([1]; 500 g ai/ha) | Plant response rating, Kochia [2, 24]
30: Plant response rating, Galium [1, 21] | Kochia plant response rating (0 to 100 scale, 0 is no effect, 100 is complete control) ([2]; Postemergence, 500 g ai/ha) | Plant response rating, Ryegrass, Italian [9, 22] | Ryegrass, Italian plant response rating (0 to 100 scale, 0 is no effect, 100 is complete control) ([9]; Postemergence, 500 g ai/ha) | Plant response rating, Ryegrass, Italian [9, 24] | Blackgrass plant response rating (0 to 100 scale, 0 is no effect, 100 is complete control) ([14]; 500 g ai/ha)
